The values below come from US11028051B2, “Tetrahydroquinoline-based bromodomain inhibitors” (St. Jude Children's Research Hospital, priority 2016, dated 2021).

SMILES strings stand for the structures. Some results are limits rather than exact numbers.

Experiment in all cases: competitive TR-FRET assay, BET-BD with acetylated peptide ligand
Holding throughout (assay type): binding
On the technique in general: In TR-FRET formats the signal depends on donor and acceptor labels being close together.

The target of one assay is BRD4-BD2 (Homo sapiens (Human), UniProt O60885). As to conditions: BRD4-BD2; Table 11 additional modifications; read-out: 4.2 EC50. On the procedure: (§1) Inhibitor potency was determined using a competitive TR-FRET assay as detailed herein, measuring interaction of the respective BET-BD with an acetylated peptide ligand (Table 2).
The target in the next assay is BRD2-BD1 (Homo sapiens (Human), UniProt P25440). The following applies: BRD2-BD1; Table 11 additional modifications; read-out: 2.1 EC50. As for the experimental part: as §1
A further assay deals with BRD3-BD1 (Homo sapiens (Human), UniProt Q15059). The following applies: BRD3-BD1; Table 11 additional modifications; read-out: 3.1 EC50. On the procedure:
as §1

The target of a further assay is BRD4-BD1 (Homo sapiens (Human), UniProt O60885). The following applies: BRD4-BD1; Table 11 additional modifications; read-out: 4.1 EC50. On the procedure:
as §1

The target of the next assay is BRD2-BD2 (Homo sapiens (Human), UniProt P25440). As to conditions: for EC50: BRD2-BD2, Table 11 additional modifications, read-out: 2.2 EC50; for 2.1/2.2: ratio of BRD2-BD1 EC50 to BRD2-BD2 EC50 (selectivity). As for the experimental part:
as §1

Another assay addresses BRDT (Homo sapiens, UniProt Q58F21). As to conditions: BRDT; Table 11 additional modifications; read-out: BRDT EC50. As for the experimental part: as §1

BRD3-BD1, sequence (Q15059 34-140): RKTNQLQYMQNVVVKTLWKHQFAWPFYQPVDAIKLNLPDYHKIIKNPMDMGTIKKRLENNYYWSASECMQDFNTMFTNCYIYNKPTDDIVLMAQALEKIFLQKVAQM
BRD2-BD2, sequence (P25440 344-453): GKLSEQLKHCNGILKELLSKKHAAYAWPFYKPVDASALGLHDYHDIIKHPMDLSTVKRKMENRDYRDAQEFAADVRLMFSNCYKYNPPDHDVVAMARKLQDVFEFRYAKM
BRD2-BD1, sequence (P25440 74-180): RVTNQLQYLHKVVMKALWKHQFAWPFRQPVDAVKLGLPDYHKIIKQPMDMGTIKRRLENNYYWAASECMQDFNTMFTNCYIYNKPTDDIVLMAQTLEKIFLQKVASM

Broadly, the EC50 is the concentration at which the effect is half-maximal. As for `CC(=O)Nc1cccc(-c2ccc3c(c2)[C@H](NC(=O)c2ccccc2)C[C@H](C)N3C(C)=O)c1` [compound 62], the 50% effective concentration (EC50) on BRD4-BD2 came out at 41000 nM; on BRD2-BD1, 77000 nM; on BRD3-BD1, 62000 nM; on BRD4-BD1 it was 77000 nM; at BRD2-BD2, 77000 nM. In addition, at BRD2-BD2, the 2.1/2.2 was determined as 6.0.

Regarding `CC(=O)Nc1cccc(-c2ccc3c(c2)[C@H](NC(=O)c2ccc(C(F)(F)F)cc2)C[C@H](C)N3C(C)=O)c1` [compound 69], the half-maximal effective concentration (EC50) at BRD4-BD2 worked out at 75000 nM; at BRD2-BD1 it was 75000 nM; at BRD3-BD1, 75000 nM; on BRD4-BD1 it was 74000 nM; at BRD2-BD2, 2700 nM. At BRD2-BD2, the 2.1/2.2 worked out at 28.

Take `CC(=O)N1c2ccc(-c3ccc4cc[nH]c4c3)cc2[C@H](NC(=O)OC(C)C)C[C@@H]1C` [compound 79]: the EC50 amounted to 8800 nM at BRD4-BD2; 7100 nM on BRD2-BD1; 2200 nM on BRD3-BD1; 8200 nM on BRD4-BD1; 2700 nM on BRD2-BD2. For the same compound, the 2.1/2.2 at BRD2-BD2 was 2.6.

Regarding `CC(=O)N1c2ccc(-c3ccc4[nH]ccc4c3)cc2[C@H](NC(=O)OC(C)C)C[C@@H]1C` [compound 81], the EC50 at BRD4-BD2 is 8100 nM; on BRD2-BD1 it was 8000 nM; at BRD3-BD1, 5900 nM; on BRD4-BD1, 6600 nM; at BRD2-BD2, 4700 nM. Besides, at BRD2-BD2, the 2.1/2.2 amounted to 2.7.

Turning to `CC(=O)N1c2ccc(-c3cccc(CN)c3)cc2[C@H](NC(=O)OC(C)C)C[C@@H]1C` [compound 88], the EC50 at BRD4-BD2 worked out at 650 nM; on BRD2-BD1, 2100 nM; at BRD3-BD1 it was 1400 nM; at BRD4-BD1, 2900 nM; at BRD2-BD2, 470 nM. Further, the 2.1/2.2 on BRD2-BD2 stood at 11.

For the compound `CC(=O)Nc1cccc(-c2ccc3c(c2)[C@H](NC(=O)Cc2ccccc2)C[C@H](C)N3C(C)=O)c1` [compound 64], the EC50 on BRD4-BD2 is 10000 nM; on BRD2-BD1 it was 8100 nM; on BRD3-BD1, 11000 nM; on BRD4-BD1, 7300 nM; at BRD2-BD2, 2000 nM. Further, the 2.1/2.2 on BRD2-BD2 is reported as 4.1.

`COC(=O)c1ccoc1-c1ccc2c(c1)[C@H](NC(=O)OC(C)C)C[C@H](C)N2C(C)=O` [compound 82]: the EC50 on BRD4-BD2 was found to be 2000 nM; at BRD2-BD1 it was 4000 nM; at BRD3-BD1 it was 2700 nM; on BRD4-BD1, 3500 nM; at BRD2-BD2, 1100 nM. Further, on BRD2-BD2, the 2.1/2.2 is reported as 6.0.

Take `COc1cccc(-c2ccc3c(c2)[C@H](NC(=O)OC(C)C)C[C@H](C)N3C(C)=O)c1` [compound 3]: the EC50 on BRD4-BD2 was greater than 67800 nM; on BRD2-BD1, 5800 nM; at BRD3-BD1, 2300 nM; at BRD4-BD1, greater than 67800 nM; on BRD2-BD2, 850 nM. Also, the 2.1/2.2 at BRD2-BD2 worked out at 6.8.

Turning to `CC(=O)Nc1cccc(-c2ccc3c(c2)[C@H](NCc2ccccc2)C[C@H](C)N3C(C)=O)c1` [compound 63], the concentration for a half-maximal effect (EC50) at BRD4-BD2 amounted to 7600 nM; on BRD2-BD1 it was 13000 nM; on BRD3-BD1 it was 6900 nM; on BRD4-BD1 it was 13000 nM; at BRD2-BD2 it was 2400 nM. Moreover, the 2.1/2.2 on BRD2-BD2 came to 1.0.

Consider `CC(=O)Nc1cccc(-c2ccc3c(c2)[C@H](NC(=O)C(C)C)C[C@H](C)N3C(C)=O)c1` [compound 71], for which, on BRD4-BD2, the concentration giving a half-maximal response (EC50) came to 11000 nM. In addition, the 2.1/2.2 on BRD2-BD2 worked out at 4.9.

For the compound `CC(=O)Nc1cccc(-c2ccc3c(c2)[C@H](Nc2cccc4ccccc24)C[C@H](C)N3C(C)=O)c1` [compound 32], the EC50 at BRD2-BD1, at BRDT, on BRD3-BD1, at BRD4-BD1 and on BRD2-BD2 was greater than 23000 nM each time.

As for `CC(=O)Nc1cccc(-c2ccc3c(c2)[C@H](Nc2ccc(S(=O)(=O)N(C)C)cc2)C[C@H](C)N3C(C)=O)c1` [compound 175], the EC50 amounted to 2700 nM at BRD2-BD1; 2900 nM on BRDT; 1700 nM on BRD3-BD1; 5500 nM on BRD4-BD1; 100 nM on BRD2-BD2. The 2.1/2.2 at BRD2-BD2 turned out to be 27.

Regarding `CCCC(=O)Nc1cccc(-c2ccc3c(c2)[C@H](NC(=O)OC(C)C)C[C@H](C)N3C(C)=O)c1` [compound 101], the concentration giving a half-maximal response (EC50) on BRD2-BD1 was determined as 1100 nM; on BRDT it was 1300 nM; on BRD3-BD1, 340 nM; on BRD4-BD1, 950 nM; on BRD2-BD2, 110 nM. At BRD2-BD2, the 2.1/2.2 was found to be 3.3.

Take `CC(=O)N1c2ccc(-c3cccc(NCc4ccccc4)c3)cc2[C@H](NC(=O)OC(C)C)C[C@@H]1C` [compound 117]: the EC50 at BRD2-BD1 worked out at 600 nM; on BRDT it was 1200 nM; on BRD3-BD1, 230 nM; on BRD4-BD1, 520 nM; at BRD2-BD2 it was 100 nM. Further, the 2.1/2.2 on BRD2-BD2 came to 39.

In the case of `CC(=O)N1c2ccc(-c3cc[nH]n3)cc2[C@H](Nc2ccccc2OC(F)(F)F)C[C@@H]1C` [compound 171], the EC50 at BRD2-BD1 is greater than 53000 nM; at BRDT, greater than 53000 nM; on BRD3-BD1, 23000 nM; on BRD4-BD1, 31000 nM; on BRD2-BD2, 440 nM. Further, the 2.1/2.2 on BRD2-BD2 was found to be 140.

`CC(=O)N1c2ccc(-c3cccc(NC(=O)C4CCC(C)CC4)c3)cc2[C@H](NC(=O)OC(C)C)C[C@@H]1C` (stereo partly shown) [compound 102]: the 50% effective concentration (EC50) is 4800 nM at BRD2-BD1; 1200 nM on BRDT; 530 nM on BRD3-BD1; 3800 nM on BRD4-BD1; 430 nM at BRD2-BD2. Also, the 2.1/2.2 at BRD2-BD2 amounted to 40.

As to `CC(=O)Nc1cccc(-c2ccc3c(c2)[C@H](Nc2ccc(-c4nnco4)cc2)C[C@H](C)N3C(C)=O)c1` [compound 34], the EC50 at BRD2-BD1 worked out at 410 nM; at BRDT, 890 nM; at BRD3-BD1, 510 nM; at BRD4-BD1, 5100 nM; on BRD2-BD2, 20 nM. In addition, the 2.1/2.2 at BRD2-BD2 worked out at 21.

Consider `CC(=O)Nc1cccc(-c2ccc3c(c2)[C@H](Nc2ccc(C(=O)N(C)C)cc2)C[C@H](C)N3C(C)=O)c1` [compound 174], for which the concentration for a half-maximal effect (EC50) at BRD2-BD1 is 900 nM; on BRDT it was 1200 nM; at BRD3-BD1, 1100 nM; on BRD4-BD1, greater than 15000 nM; at BRD2-BD2, 40 nM. The 2.1/2.2 at BRD2-BD2 worked out at 58.

For the compound `COC(=O)c1ccc(N[C@@H]2C[C@H](C)N(C(C)=O)c3ccc(-c4cccc(NC(C)=O)c4)cc32)c(C)c1` [compound 160], the EC50 was 2200 nM at BRD2-BD1, 3300 nM at BRDT, 3000 nM at BRD3-BD1 and greater than 30000 nM at BRD4-BD1. Besides, the 2.1/2.2 at BRD2-BD2 is 44.

Regarding `CCCOc1cccc(-c2ccc3c(c2)[C@H](Nc2ccccc2OC(F)(F)F)C[C@H](C)N3C(C)=O)c1` [compound 167], the EC50 on BRD2-BD1 was greater than 70000 nM; at BRDT, greater than 70000 nM; at BRD3-BD1 it was greater than 70000 nM; at BRD4-BD1, greater than 70000 nM; on BRD2-BD2 it was 2100 nM. Also, the 2.1/2.2 on BRD2-BD2 is listed as 16.

`CC(=O)N1c2ccc(-c3cccc(NCCC(C)(C)C)c3)cc2[C@H](NC(=O)OC(C)C)C[C@@H]1C` [compound 106]: the EC50 on BRD2-BD1 was 3900 nM; on BRDT, 7000 nM; on BRD3-BD1 it was 980 nM; at BRD4-BD1, 3300 nM; on BRD2-BD2 it was 43000 nM. Moreover, the 2.1/2.2 on BRD2-BD2 amounted to 10.

Regarding `CC(=O)Nc1cccc(-c2ccc3c(c2)[C@H](Nc2cccc4cccnc24)C[C@H](C)N3C(C)=O)c1` [compound 33], the concentration giving a half-maximal response (EC50) at BRD2-BD1 was greater than 4900 nM; on BRDT, greater than 4900 nM; on BRD3-BD1, greater than 4900 nM; on BRD4-BD1 it was greater than 4900 nM; on BRD2-BD2, 10000 nM.

`CC(=O)N1c2ccc(-c3ccnn3C)cc2[C@H](NC(=O)OC(C)C)C[C@@H]1C` [compound 97]: the concentration giving a half-maximal response (EC50) on BRD2-BD1 was 100000 nM; on BRDT, 40000 nM; on BRD3-BD1, 7800 nM; at BRD4-BD1 it was 20000 nM; at BRD2-BD2 it was 2500 nM. Also, the 2.1/2.2 on BRD2-BD2 was found to be 4.8.

With `CC(=O)N1c2ccc(-c3cccc(NC(=O)C(C)C)c3)cc2[C@H](NC(=O)OC(C)C)C[C@@H]1C` [compound 98], the EC50 at BRD2-BD1 was found to be 1500 nM; on BRDT, 1200 nM; on BRD3-BD1, 240 nM; at BRD4-BD1, 900 nM; at BRD2-BD2 it was 120 nM. Also, the 2.1/2.2 at BRD2-BD2 is 15.

Consider `CC(=O)N1c2ccc(-c3cccc(NS(C)(=O)=O)c3)cc2[C@H](NC(=O)OC(C)C)C[C@@H]1C` [compound 93], for which the concentration giving a half-maximal response (EC50) at BRD2-BD1 came out at 580 nM; on BRDT, 1200 nM; on BRD3-BD1 it was 150 nM; at BRD4-BD1, 380 nM; at BRD2-BD2 it was 120 nM. Further, the 2.1/2.2 on BRD2-BD2 turned out to be 4.6.

On to `CC(=O)Nc1cccc(-c2ccc3c(c2)[C@H](NC(=O)C(C)C)C[C@H](C)N3C(C)=O)c1` [compound 65], for which the half-maximal effective concentration (EC50) at BRD4-BD2 is 7800 nM. Moreover, the 2.1/2.2 at BRD2-BD2 is recorded as 1.4.

In the case of `CC(=O)N1c2ccc(-c3cccc(NC(=O)C(C)(C)C)c3)cc2[C@H](NC(=O)OC(C)C)C[C@@H]1C` [compound 113], the concentration for a half-maximal effect (EC50) was 2200 nM at BRD2-BD1; 7500 nM on BRDT; 410 nM at BRD3-BD1; 1400 nM on BRD4-BD1; 110 nM on BRD2-BD2. For the same compound, on BRD2-BD2, the 2.1/2.2 stood at 4.8.
